From patent US7405207B2, “Nebulizer formulations of dehydroepiandrosterone and methods of treating asthma or chronic obstructive pulmonary disease using compositions thereof” (Epigenesis Pharmaceuticals, Inc., priority 2002, dated 2008)
Values joined by “and” are separate entries in the source; they are usually repeats but may differ in a detail not shown here. Identical values can stand only once.

Key:
Format in all cases: physicochemical
[1] = Stability of anhydrous DHEA-S and DHEA-S dihydrate with and without lactose (HPLC, DHEA formed)
Text: These conditions were used to stress the formulation in order to predict its long-term stability results.
The primary degradant is dehydroepiandrosterone or DHEA. […] The materials on accelerated storage become more cohesive with time as evidenced by clumping during sample weighing for chemical analysis. […] This is a considerable disadvantage since lactose is the most commonly used inhalation excipient for dry powder formulations. Continuing with the virtually anhydrous form would mean limiting formulations to neat powder or undertaking more comprehensive safety studies to use a novel excipient.

[2] = Short-term solution stability; details: 7.5 mg/mL in 0.12% NaCl, room temperature
Method: Stability Studies. […] Aliquots of this solution are filled into clear glass vials and stored at room temperature (24-26° C.) and at 40° C. The samples are checked daily for DHEA-S content, DHEA content, and appearance. For each time point, duplicate samples are withdrawn and diluted from each vial.

[3] = Solubility of DHEA-S; details: 20 mM Na+ (0.12% NaCl), Ksp of 1316 mM^2, 15° C.
Text: Inhalation of pure water can produce a cough stimulus.

SMILES	water content ([1]; after accelerated storage, one week at 50° C.) [%]	water content ([1]; starting value) [%]	solution stability [2]	calculated DHEA-S concentration (solubility) [3]
CC12CCC3C(CC=C4CC(OS(=O)(=O)[O-])CCC43C)C1CCC2=O.[Na+] (stereo not shown) [DHEA-S Dihydrate, dehydroepiandrosterone sodium sulfate dihydrate]	8.66	8.8		
C[C@]12CC[C@H](OS(=O)(=O)[O-])CC1=CC[C@@H]1[C@@H]2CC[C@]2(C)C(=O)CC[C@@H]12.[Na+] [DHEA-S, sodium dehydroepiandrostenone sulfate]			stable for at least one day	27.5 mM and 10.7 mg/mL
